From patent EP2151237A1, “PHARMACEUTICAL COMPOSITION COMBINING A NON-STEROIDAL ANTI-INFLAMMATORY AGENT AND AN ANTICONVULSANT AGENT” (priority 2007, dated 2008)

Tests used:
[1] = cited from earlier work
[2] = tested on: A-carrageenin-induced hyperalgesia; assay: A-carrageenin-induced peripheral inflammatory hyperalgesia in rat paw, paw latency (SLP); conditions: for ED50: Rattus norvegicus, po, 2 h, read-out: DE50 value; for peak effect / maximum effect time: time after administration, ipsilateral paw SLP
Description: In this study, an isobolographic analysis was conducted in order to test the interaction between Gabapentin and Meloxicam administered under three different conditions.
Sprague-Dawley male rats were used, with an approximate weight of 200-300 g. […] Rats were used once and they only received one dose of the drugs or the combination thereof.
Rats were placed in a spin cylinder to 4 rpm and one of their paws was connected to a computer terminal. After acclimatization for 1 hour, rats were administered 100 µl of 1% A-carrageenin solution on the plantar surface of one rear paw.
These fixed dosage ratios were selected by a DE50 value range for each drug and reciprocal ratio.
In order to determine the interaction nature, the dosage-derived relationship-response for the total dosage of Gabapentin and Meloxicam, was compared to the theoretical dose relationship-additive by a standard parallel line method.

[3] = tested on: α2δ, which are ancillary subunits of voltage-activated calcium channels; conditions: cited from earlier work
other common receptors = conditions: benzodiazepine, glutamate, NMDA, α1, α2, β-adrenergic, muscarinic, nicotinic, dopaminergic, histaminic, serotoninergic, opiate, canabinoid receptors, voltage-dependent calcium or sodium channels; cited from earlier work
[4] = cited from earlier work; remark: listed apart in the source
[5] = cited from earlier work; remark: listed apart in the source
[6] = in its acid form; higher than Piroxicam; cited from earlier work
rat stomachs = conditions: cited from earlier work
[7] = Chromatographic testing of blood samples (plasma concentrations); type: in vivo, Sprague-Dawley male rats; conditions: blood samples taken after the assessments
Description: After such assessments, rats were anesthetized with halothane and blood samples were taken for chromatographic testing.

SMILES	time to maximum plasma concentrations ([1]; after the administration) [h]	binding to plasmatic proteins ([1]; plasma) [%]	ED50 [2] [mg/kg]	contralateral paw response latencies ([2]; non-swollen contralateral rear paw)	peak effect / maximum effect time [2] [min]	affinity to α2δ proteins [3]	affinity to other common receptors (other common receptors)	solubility in water [4]	concentration ([5]; approximately 50 minutes after the administration) [ng/mL]	adherence to plasmatic proteins ([5]; in vivo) [%]	part of the administered dose eliminated in urine ([5]; the rest is excreted in faeces)	membrane solubility relative to Piroxicam [6] [fold]	gastric ulcerogenicity (rat stomachs)	effect of additional presence of Meloxicam on plasma concentrations of Gabapentin [7]
NCC1(CC(=O)O)CCCCC1 [Gabapentin]	≤ 3	3	19.2	did not show any alteration	120	high affinity	no affinity							
Cc1cnc(NC(=O)C2=C(O)c3ccccc3S(=O)(=O)N2C)s1 [Meloxicam, 4-hydroxy-2-methyl-N-(5-methyl-2-thiazolyl)-2H benzotiazine-3-carboxamide-1,1-dioxide]			0.46		120			virtually insoluble	1600	99	Around a half	10	minimal gastric ulcerogenicity	does not alter
